# Values of other authors as cited in patent US7862843B2 (priority 2004, dated 2011).
# How the values were obtained:
# [1] = test system: prions
# [2] = test system: prions; remark: listed apart in the source
Structure (SMILES),Inactivating the infectivity of prions [1],"Infectivity lost ([2]; 1,000 ppm available chlorine, 4-16 hour exposure)","Inactivation of prions on surfaces ([2]; full strength, 20,000-50,000 ppm)"
CC(C)=O [acetone],ineffective,,
O=C1CCO1 [beta-propiolactone],ineffective,,
CCO [ethanol],ineffective,,
C1CO1 [ethylene oxide],ineffective,,
C=O [formalin],ineffective,,
"[Na+].[O-]Cl [hypochlorite, sodium hypochlorite]",,10^4-10^5 units of infectivity,effective
